Reference: patent publication US20090304692A1, “TRIAZINE COMPOUNDS AS PI3 KINASE AND MTOR INHIBITORS” (Wyeth, priority 2008, published 2009)
“And” between values parts separate entries of the source, which are not always exact repeats. Equal values may be shown once. Read-outs that look alike come from different tables or passages of the source.

Columns and labels:
Human mTOR (FLAG-TOR) = Human mTOR (FLAG-TOR) (Homo sapiens, UniProt P42345); experiment: mTOR kinase assay (DELFIA format, purified enzyme); format: biochemical; details: read-out: IC50 mTOR
Human mTOR (FLAG-TOR), sequence (P42345 1360-2549 limits assumed): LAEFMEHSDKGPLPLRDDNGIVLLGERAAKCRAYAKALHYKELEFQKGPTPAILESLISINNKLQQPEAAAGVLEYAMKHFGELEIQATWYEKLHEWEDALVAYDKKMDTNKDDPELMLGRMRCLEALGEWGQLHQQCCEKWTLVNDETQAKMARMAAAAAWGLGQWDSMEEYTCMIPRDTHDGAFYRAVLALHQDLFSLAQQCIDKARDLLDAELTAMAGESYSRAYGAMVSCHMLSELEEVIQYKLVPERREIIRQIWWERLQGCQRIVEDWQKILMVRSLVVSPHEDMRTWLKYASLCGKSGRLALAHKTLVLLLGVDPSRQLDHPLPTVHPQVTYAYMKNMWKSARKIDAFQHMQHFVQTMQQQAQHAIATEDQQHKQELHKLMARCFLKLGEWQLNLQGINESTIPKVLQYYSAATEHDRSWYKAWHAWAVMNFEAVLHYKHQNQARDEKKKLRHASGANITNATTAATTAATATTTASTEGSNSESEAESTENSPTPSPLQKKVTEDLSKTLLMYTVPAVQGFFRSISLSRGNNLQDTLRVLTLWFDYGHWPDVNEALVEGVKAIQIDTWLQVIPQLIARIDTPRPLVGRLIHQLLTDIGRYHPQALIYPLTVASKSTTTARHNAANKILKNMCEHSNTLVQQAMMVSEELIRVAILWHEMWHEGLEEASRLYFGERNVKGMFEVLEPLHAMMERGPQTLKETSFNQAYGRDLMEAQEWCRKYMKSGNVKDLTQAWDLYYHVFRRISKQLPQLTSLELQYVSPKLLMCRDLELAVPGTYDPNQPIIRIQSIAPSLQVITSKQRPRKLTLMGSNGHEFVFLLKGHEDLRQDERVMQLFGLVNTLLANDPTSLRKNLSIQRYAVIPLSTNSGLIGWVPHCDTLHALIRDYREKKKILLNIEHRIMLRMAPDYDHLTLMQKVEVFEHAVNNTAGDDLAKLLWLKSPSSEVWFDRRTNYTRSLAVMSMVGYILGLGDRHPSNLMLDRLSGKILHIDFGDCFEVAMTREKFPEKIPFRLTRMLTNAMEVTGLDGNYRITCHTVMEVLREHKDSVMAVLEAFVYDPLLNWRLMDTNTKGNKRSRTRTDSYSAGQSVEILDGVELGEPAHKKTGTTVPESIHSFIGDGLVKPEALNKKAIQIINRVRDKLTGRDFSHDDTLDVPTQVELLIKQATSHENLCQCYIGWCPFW

PI3K-α = PI3K-α (Homo sapiens, UniProt P42336); experiment: PI3K-alpha fluorescence polarization assay
PI3K-α, sequence (P42336 whole entry, species assumed): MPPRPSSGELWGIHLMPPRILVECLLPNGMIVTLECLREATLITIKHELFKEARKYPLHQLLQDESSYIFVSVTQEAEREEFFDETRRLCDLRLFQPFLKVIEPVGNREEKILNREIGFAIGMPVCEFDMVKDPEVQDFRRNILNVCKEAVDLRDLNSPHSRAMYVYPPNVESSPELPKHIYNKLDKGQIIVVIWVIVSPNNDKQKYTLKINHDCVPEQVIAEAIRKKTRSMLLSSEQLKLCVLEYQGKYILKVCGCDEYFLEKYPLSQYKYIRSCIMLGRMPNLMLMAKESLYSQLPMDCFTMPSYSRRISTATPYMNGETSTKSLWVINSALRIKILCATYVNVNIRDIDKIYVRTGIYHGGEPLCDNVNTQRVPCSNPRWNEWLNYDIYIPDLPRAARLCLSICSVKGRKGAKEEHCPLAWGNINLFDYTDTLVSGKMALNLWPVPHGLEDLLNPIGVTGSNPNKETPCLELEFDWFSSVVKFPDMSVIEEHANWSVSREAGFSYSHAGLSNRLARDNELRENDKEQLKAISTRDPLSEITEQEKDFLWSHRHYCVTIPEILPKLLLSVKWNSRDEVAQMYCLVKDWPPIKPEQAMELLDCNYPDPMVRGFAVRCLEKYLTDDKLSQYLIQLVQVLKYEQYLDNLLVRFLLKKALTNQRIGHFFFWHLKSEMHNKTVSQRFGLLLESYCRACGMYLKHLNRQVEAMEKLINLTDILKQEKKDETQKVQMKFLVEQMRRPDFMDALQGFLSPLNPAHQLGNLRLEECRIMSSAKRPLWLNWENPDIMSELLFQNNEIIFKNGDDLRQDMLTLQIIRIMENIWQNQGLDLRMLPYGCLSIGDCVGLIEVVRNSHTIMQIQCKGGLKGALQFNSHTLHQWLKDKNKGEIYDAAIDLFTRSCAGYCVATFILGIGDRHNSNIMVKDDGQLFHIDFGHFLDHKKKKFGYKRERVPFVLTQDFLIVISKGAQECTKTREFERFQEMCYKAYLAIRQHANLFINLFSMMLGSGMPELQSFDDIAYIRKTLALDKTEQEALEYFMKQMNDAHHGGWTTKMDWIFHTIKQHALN
PI3K-α, sequence (P27986 whole entry partner, species assumed): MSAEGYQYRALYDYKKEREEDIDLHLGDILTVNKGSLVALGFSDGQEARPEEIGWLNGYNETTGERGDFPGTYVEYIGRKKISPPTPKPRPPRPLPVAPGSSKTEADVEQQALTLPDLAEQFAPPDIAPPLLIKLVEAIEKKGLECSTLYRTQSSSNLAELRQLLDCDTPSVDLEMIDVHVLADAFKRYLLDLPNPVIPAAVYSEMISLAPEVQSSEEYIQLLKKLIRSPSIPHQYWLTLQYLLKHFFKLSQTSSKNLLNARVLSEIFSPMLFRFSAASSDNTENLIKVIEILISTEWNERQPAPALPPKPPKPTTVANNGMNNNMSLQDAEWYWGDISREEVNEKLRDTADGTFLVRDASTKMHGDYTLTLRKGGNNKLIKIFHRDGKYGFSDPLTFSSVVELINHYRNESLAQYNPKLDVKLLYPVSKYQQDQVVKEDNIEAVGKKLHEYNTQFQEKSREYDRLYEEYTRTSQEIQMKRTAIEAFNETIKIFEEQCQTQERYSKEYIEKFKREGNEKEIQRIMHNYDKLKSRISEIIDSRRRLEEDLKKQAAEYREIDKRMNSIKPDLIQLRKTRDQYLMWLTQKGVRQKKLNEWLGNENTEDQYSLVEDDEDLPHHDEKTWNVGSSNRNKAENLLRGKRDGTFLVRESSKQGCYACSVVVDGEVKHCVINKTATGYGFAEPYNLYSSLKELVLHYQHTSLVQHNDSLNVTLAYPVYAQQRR

PI3K-γ = PI3K-γ (Homo sapiens, UniProt P48736); experiment: PI3K-gamma fluorescence polarization assay
PI3K-γ, sequence (P48736 whole entry, species assumed): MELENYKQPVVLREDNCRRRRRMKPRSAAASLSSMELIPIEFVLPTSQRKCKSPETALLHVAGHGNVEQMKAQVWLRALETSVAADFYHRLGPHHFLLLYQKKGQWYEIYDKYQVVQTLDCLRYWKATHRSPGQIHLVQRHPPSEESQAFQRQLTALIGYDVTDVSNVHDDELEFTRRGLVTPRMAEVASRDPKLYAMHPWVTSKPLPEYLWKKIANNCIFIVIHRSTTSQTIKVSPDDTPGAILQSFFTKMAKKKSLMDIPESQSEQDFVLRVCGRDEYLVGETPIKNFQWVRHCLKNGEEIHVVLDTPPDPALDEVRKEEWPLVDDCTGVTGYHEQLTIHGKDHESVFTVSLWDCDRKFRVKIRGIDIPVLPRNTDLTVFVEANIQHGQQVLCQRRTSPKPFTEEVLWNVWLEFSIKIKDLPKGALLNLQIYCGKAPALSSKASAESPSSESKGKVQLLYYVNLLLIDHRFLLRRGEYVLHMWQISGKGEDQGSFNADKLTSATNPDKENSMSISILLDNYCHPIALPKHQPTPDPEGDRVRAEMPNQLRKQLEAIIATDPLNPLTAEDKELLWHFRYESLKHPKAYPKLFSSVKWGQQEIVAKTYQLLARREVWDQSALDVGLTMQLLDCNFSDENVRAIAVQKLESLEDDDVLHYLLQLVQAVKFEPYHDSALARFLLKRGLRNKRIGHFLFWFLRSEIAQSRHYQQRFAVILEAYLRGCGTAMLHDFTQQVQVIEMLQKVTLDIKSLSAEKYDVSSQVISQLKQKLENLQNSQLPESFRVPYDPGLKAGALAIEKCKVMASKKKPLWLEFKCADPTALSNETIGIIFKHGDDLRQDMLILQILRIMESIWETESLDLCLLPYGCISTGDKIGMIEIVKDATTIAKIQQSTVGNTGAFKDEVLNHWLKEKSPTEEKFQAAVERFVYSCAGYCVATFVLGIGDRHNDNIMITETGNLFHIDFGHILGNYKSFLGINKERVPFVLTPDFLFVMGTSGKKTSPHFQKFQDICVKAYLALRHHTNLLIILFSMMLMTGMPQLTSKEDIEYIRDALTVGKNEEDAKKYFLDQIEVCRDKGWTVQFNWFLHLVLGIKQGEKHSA

Compound | IC50 (Human mTOR (FLAG-TOR)) | IC50 (PI3K-α; read-out: IC50 PI3Kα) [nM] | IC50 (PI3K-γ; read-out: IC50 PI3Kγ) [nM] | other results
1-(3-{[4-(dimethylamino)piperidin-1-yl]carbonyl}phenyl)-3-{4-[4-(4-methylphenyl)-6-morpholin-4-yl-1,3,5-triazin-2-yl]phenyl}urea [Example 579] | 120 nM | 462 | 658 | –
1-(4-(4-(3-oxa-8-azabicyclo[3.2.1]octan-8-yl)-6-(piperidin-4-ylamino)-1,3,5-triazin-2-yl)phenyl)-3-ethylurea [Example 363] | 0.77 nM | 1100 | 7140 | –
COc1ccc(NC(=O)Nc2ccc(-c3nc(N4CCOCC4)nc(N4CCOCC4)n3)cc2)c(OC)c1 [Example 7, 1-(2,4-dimethoxyphenyl)-3-[4-(4,6-dimorpholin-4-yl-1,3,5-triazin-2-yl)phenyl]-urea] | > 4000 nM | – | – | IC50 (PI3K-α): > 10000 nM
CCNC(=O)Nc1ccc(-c2nc(N3CCOCC3)nc(N3CCOCC3)n2)cc1 [Example 12, 1-[4-(4,6-dimorpholin-4-yl-1,3,5-triazin-2-yl)phenyl]-3-ethylurea] | 11 nM | 248 | 815 | –
Cc1ccc(NC(=O)Nc2ccc(-c3nc(NC4CN(C(=O)OC(C)(C)C)C4)nc(N4CCOCC4)n3)cc2)cc1 [Example 16, tert-butyl 3-{[4-(4-{[(4-methylphenyl)carbamoyl]amino}phenyl)-6-morpholin-4-yl-1,3,5-triazin-2-yl]amino}azetidine-1-carboxylate] | 12 nM | – | – | IC50 (PI3K-α): > 10000 nM
Nc1ccc(-c2nc(N3CCOCC3)nc(N3C4CCC3COC4)n2)cc1 [Example 33, 4-[4-morpholin-4-yl-6-(3-oxa-8-azabicyclo[3.2.1]oct-8-yl)-1,3,5-triazin-2-yl]aniline] | 91 nM | 2550 | – | IC50 (PI3K-γ): > 10000 nM
CC(C)NC(=O)Nc1ccc(-c2nc(N3CCOCC3)nc(N3C4CCC3COC4)n2)cc1 [Example 44, 1-isopropyl-3-{4-[4-morpholin-4-yl-6-(3-oxa-8-azabicyclo[3.2.1]oct-8-yl)-1,3,5-triazin-2-yl]phenyl}urea] | 13.5 nM | 1580 | 9500 | –
O=C(NCCO)Nc1ccc(-c2nc(N3CCOCC3)nc(N3C4CCC3COC4)n2)cc1 [Example 45, 1-(2-hydroxyethyl)-3-{4-[4-morpholin-4-yl-6-(3-oxa-8-azabicyclo[3.2.1]oct-8-yl)-1,3,5-triazin-2-yl]phenyl}urea] | 3.6 nM | 504 | 2080 | –
CN(C)CCNC(=O)Nc1ccc(-c2nc(N3CCOCC3)nc(N3CCC4(CC3)OCCO4)n2)cc1 [Example 46, 1-[2-(dimethylamino)ethyl]-3-{4-[4-(1,4-dioxa-8-azaspiro[4.5]dec-8-yl)-6-morpholin-4-yl-1,3,5-triazin-2-yl]phenyl}urea] | 24 nM and 20 nM | – | – | IC50 (PI3K-α; read-out: IC50 PI3Kα, listed as 136): 208 nM; IC50 (PI3K-α; read-out: IC50 PI3Kα, listed as 711): 208 nM; IC50 (PI3K-γ; read-out: IC50 PI3Kγ, listed as 136): 4920 nM; IC50 (PI3K-γ; read-out: IC50 PI3Kγ, listed as 711): 4920 nM
O=C(Nc1ccc(-c2nc(N3CCOCC3)nc(N3CCOCC3)n2)cc1)Nc1ccc(C(F)(F)F)cn1 [Example 55, 1-[4-(4,6-dimorpholin-4-yl-1,3,5-triazin-2-yl)phenyl]-3-[5-(trifluoromethyl)pyridin-2-yl]urea] | 50 nM | 205 | 1580 | –
O=C(Nc1ccc(-c2nc(N3CCOCC3)nc(N3CCOCC3)n2)cc1)Nc1ccc(C(O)(C(F)(F)F)C(F)(F)F)cc1 [Example 56, 1-[4-(4,6-dimorpholin-4-yl-1,3,5-triazin-2-yl)phenyl]-3-{4-[2,2,2-trifluoro-1-hydroxy-1-(trifluoromethyl)ethyl]phenyl}urea] | 15 nM and 10 nM | – | – | –
CNC(=O)Nc1ccc(-c2nc(-c3ccc(NC(=O)Nc4ccc(C(N)=O)cc4)cc3)nc(N3CCOCC3)n2)cc1 [Example 462, 4-({[4-(4-{4-[(methylcarbamoyl)amino]phenyl}-6-morpholin-4-yl-1,3,5-triazin-2-yl)phenyl]carbamoyl}amino) benzamide] | < 1 nM | – | – | –

More lines, main results first:

IC50 (Human mTOR (FLAG-TOR)) | IC50 (PI3K-α; read-out: IC50 PI3Kα) [nM] | IC50 (PI3K-γ; read-out: IC50 PI3Kγ) [nM] | Compound | other results
1500 nM | 1460 | 1190 | CNCCNC(=O)Nc1ccc(-c2nc(OC3CCOCC3)nc(N3CCOCC3)n2)cc1 [Example 64, 1-[2-(methylamino)ethyl]-3-{4-[4-morpholin-4-yl-6-(tetrahydro-2H-pyran-4-yloxy)-1,3,5-triazin-2-yl]phenyl}urea] | –
2100 nM | 1350 | 9000 | CN1CCC(NC(=O)Nc2ccc(-c3nc(N4CCOCC4)nc(N4CCOCC4)n3)cc2)CC1 [Example 98, 1-[4-(4,6-dimorpholin-4-yl-1,3,5-triazin-2-yl)phenyl]-3-(1-methylpiperidin-4-yl)urea] | –
460 nM | 1520 | 7500 | C[C@H]1COCCN1c1nc(-c2ccc(NC(=O)NC3CCN(C)CC3)cc2)nc(N2CCOCC2)n1 [Example 99, 1-(4-{4-[(3S)-3-methylmorpholin-4-yl]-6-morpholin-4-yl-1,3,5-triazin-2-yl}phenyl)-3-(1-methylpiperidin-4-yl)urea] | –
2350 nM | 7220 | – | Nc1ccc(-c2nc(N3CCOCC3)nc(N3CCC4(CC3)OCCO4)n2)cc1 [Example 129, 4-[4-(1,4-dioxa-8-azaspiro[4.5]dec-8-yl)-6-morpholin-4-yl-1,3,5-triazin-2-yl]aniline] | IC50 (PI3K-γ): > 10000 nM
23 nM | 10 | 495 | COC(=O)c1ccc(NC(=O)Nc2ccc(-c3nc(C)nc(N4CCOCC4)n3)cc2)cc1 [Example 162, methyl 4-({[4-(4-methyl-6-morpholin-4-yl-1,3,5-triazin-2-yl)phenyl]carbamoyl}amino)benzoate] | –
3.6 nM | 1 | 3 | CN(C)CCN1CCN(C(=O)c2ccc(NC(=O)Nc3ccc(-c4nc(N5CCOCC5)nc(N5CCOCC5)n4)cc3)cc2)CC1 [Example 168, 1-[4-({4-[2-(dimethylamino)ethyl]piperazin-1-yl}carbonyl)phenyl]-3-[4-(4,6-dimorpholin-4-yl-1,3,5-triazin-2-yl)phenyl]urea] | –
11 nM | 7540 | 2380 | CCCCc1nc(-c2ccc(NC(=O)Nc3ccc(C(=O)OC)cc3)cc2)nc(N2CCOCC2)n1 [Example 188, methyl 4-({[4-(4-butyl-6-morpholin-4-yl-1,3,5-triazin-2-yl)phenyl]carbamoyl}amino)benzoate] | –
47 nM | 109 | 388 | CCc1nc(-c2ccc(NC(=O)Nc3ccc(C(=O)OC)cc3)cc2)nc(N2CCOCC2)n1 [Example 225, methyl 4-({[4-(4-ethyl-6-morpholin-4-yl-1,3,5-triazin-2-yl)phenyl]carbamoyl}amino)benzoate] | –
62 nM | 75 | 294 | COC(=O)c1ccc(NC(=O)Nc2ccc(-c3nc(C4=CCOCC4)nc(N4CCOCC4)n3)cc2)cc1 [Example 226, methyl 4-[({4-[4-(3,6-dihydro-2H-pyran-4-yl)-6-morpholin-4-yl-1,3,5-triazin-2-yl]phenyl}carbamoyl)amino]benzoate] | –
17 nM | 63 | 253 | CCCCc1nc(-c2ccc(NC(=O)Nc3ccc(CN4CCN(C)CC4)cc3)cc2)nc(N2CCOCC2)n1 [Example 254, 1-[4-(4-butyl-6-morpholin-4-yl-1,3,5-triazin-2-yl)phenyl]-3-{4-[(4-methylpiperazin-1-yl)methyl]phenyl}urea] | –
2800 nM | 2190 | 4980 | CC(C)(C)OC(=O)N1CC2CN(c3nc(-c4ccc(NC(=O)Nc5ccncc5)cc4)nc(N4CCOCC4)n3)CC(C1)O2 [Example 281, tert-butyl-7-(4-morpholin-4-yl-6-{4-[(pyridin-4-ylcarbamoyl)amino]phenyl}-1,3,5-triazin-2-yl)-9-oxa-3,7-diazabicyclo[3.3.1]nonane-3-carboxylate] | –
150 nM and 145 nM | 97 | 166 | O=C(Nc1ccncc1)Nc1ccc(-c2nc(N3CCOCC3)nc(N3CC4CNCC(C3)O4)n2)cc1 [Example 290, 1-{4-[4-morpholin-4-yl-6-(9-oxa-3,7-diazabicyclo[3.3.1]non-3-yl)-1,3,5-triazin-2-yl]phenyl}-3-pyridin-4-ylurea] | –
190 nM | 368 | 711 | CN1CC2CN(c3nc(-c4ccc(NC(=O)Nc5ccncc5)cc4)nc(N4CCOCC4)n3)CC(C1)O2 [Example 291, 1-{4-[4-(7-methyl-9-oxa-3,7-diazabicyclo[3.3.1]non-3-yl)-6-morpholin-4-yl-1,3,5-triazin-2-yl]phenyl}-3-pyridin-4-ylurea] | –
0.63 nM | 1 | – | CN(C)[C@@H]1CCN(C(=O)c2ccc(NC(=O)Nc3ccc(-c4nc(N5CCOCC5)nc(N5CCOCC5)n4)cc3)cc2)C1 [Example 484, 1-(4-{[(3R)-3-(dimethylamino)pyrrolidin-1-yl]carbonyl}phenyl)-3-[4-(4,6-dimorpholin-4-yl-1,3,5-triazin-2-yl)phenyl]urea] | –
1.25 nM | 1.4 | – | CN(C)[C@H]1CCN(C(=O)c2ccc(NC(=O)Nc3ccc(-c4nc(N5CCOCC5)nc(N5CCOCC5)n4)cc3)cc2)C1 [Example 485, 1-(4-{[(3S)-3-(dimethylamino)pyrrolidin-1-yl]carbonyl}phenyl)-3-[4-(4,6-dimorpholin-4-yl-1,3,5-triazin-2-yl)phenyl]urea] | –
0.43 nM | – | – | CC(C)N1CCN(C(=O)c2ccc(NC(=O)Nc3ccc(-c4nc(C5CCOCC5)nc(N5CCOCC5)n4)cc3)cc2)CC1 [Example 523, 1-(4-{[4-(1-methylethyl)piperazin-1-yl]carbonyl}phenyl)-3-{4-[4-morpholin-4-yl-6-(tetrahydro-2H-pyran-4-yl)-1,3,5-triazin-2-yl]phenyl}urea] | –
